Experimental data from US20220042962A1, “METHOD FOR […] SITE-[…] WATER QUALITY […] OF RIVER BASIN” (DALIAN UNIVERSITY OF TECHNOLOGY, priority 2020, published 2022).

System: aquatic species in Liaohe River Basin
Assay: Derivation of site-specific water quality criterion (species sensitivity distribution and toxicity sorting)

ammonia nitrogen
water quality criterion value derived by the toxicity sorting method (Liaohe River Basin, four most sensitive resident sensitive and endemic species): 15.91 mg/L | water quality criterion value derived by the species sensitivity method (Liaohe River Basin, safety coefficient 2): 13.47 mg/L | water quality criterion value (validation value) (Liaohe River Basin, weights 0.3 and 0.7, pH=7.0 and temperature=20° C.): 15.18 mg/L | X value at Y=0.05 transformed to a base-10 exponent (logistic SSD model, before division by safety coefficient 2): 26.93 mg/L | X (log10 toxicity value) at Y=0.05 on the logistic SSD fitting curve (logistic model, cumulative probability Y=0.05, pH=7.0, temperature=20° C.): 1.4302
